Key:
[1] = cited from earlier work; for apparent terminal half-life: patients treated with SAHA; for serum level relative to the parent compound (higher, on average): serum from patients treated with SAHA
[2] = target: T1, UGT1A8*3 (UGT1A8p.Cys277Tyr) (Homo sapiens, UniProt Q9HAW9, C277Y); assay: Glucuronidation, UGT1A8*3 variant cell homogenate; assay type: in vitro ADME; conditions: data not shown
T1 sequence (Q9HAW9 26-530 C277Y): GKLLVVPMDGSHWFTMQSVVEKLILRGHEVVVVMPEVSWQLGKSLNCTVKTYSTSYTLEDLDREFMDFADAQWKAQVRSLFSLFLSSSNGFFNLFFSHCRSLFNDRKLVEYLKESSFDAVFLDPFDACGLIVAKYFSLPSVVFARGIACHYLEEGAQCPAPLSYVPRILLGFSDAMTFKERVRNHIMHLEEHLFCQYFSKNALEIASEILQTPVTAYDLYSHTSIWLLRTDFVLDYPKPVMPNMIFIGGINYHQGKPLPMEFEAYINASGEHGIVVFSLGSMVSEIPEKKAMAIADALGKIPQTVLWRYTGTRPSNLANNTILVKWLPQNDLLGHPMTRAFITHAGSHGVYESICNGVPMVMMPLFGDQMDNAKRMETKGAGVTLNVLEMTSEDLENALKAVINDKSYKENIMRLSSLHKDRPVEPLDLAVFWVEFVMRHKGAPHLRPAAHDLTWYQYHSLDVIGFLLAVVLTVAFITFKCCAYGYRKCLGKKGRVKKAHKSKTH

Structure (SMILES): O=C(CCCCCCC(=O)Nc1ccccc1)NO[C@@H]1O[C@H](C(=O)O)[C@@H](O)[C@H](O)[C@H]1O [SAHA-glucuronide]
- apparent terminal half-life [1]: ~ 1.8 hours
- serum level relative to the parent compound (higher, on average) [1]: 3- to 4 fold

Structure (SMILES): O=C(O)CCC(=O)Nc1ccccc1 [4-anilino-4-oxobutanoic acid]
- apparent terminal half-life [1]: 6 to 9 h
- serum level relative to the parent compound (higher, on average) [1]: 10- to 13 fold

Structure (SMILES): Cc1cc(=O)oc2cc(O)ccc12 [4-methylumbellifer-one]
- glucuronidation activity against 4-methylumbelliferone [2]: detectable levels of activity

— paper PMC2694132 (Cancer research, 2009)
